Measured values as given in PubChem BioAssay (NCI).
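How tested: cells in 96-well plates exposed to compound for 48 hours at five concentrations. Abbreviation: GI50, concentration required for 50% inhibition of growth. At the TGI there is no net growth.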

Assays:
Test in all cases: inhibition of tumour cell growth, NCI panel, 48 h
SR leukemia = system: SR leukemia
SNB-19 CNS = system: SNB-19 CNS
SW-620 colon = system: SW-620 colon
HCC-2998 colon = system: HCC-2998 colon
UO-31 renal = system: UO-31 renal
HT29 colon = system: HT29 colon
EKVX NSCLC = system: EKVX NSCLC
OVCAR-8 ovarian = system: OVCAR-8 ovarian
OVCAR-3 ovarian = system: OVCAR-3 ovarian
U251 CNS = system: U251 CNS
SNB-75 CNS = system: SNB-75 CNS
OVCAR-4 ovarian = system: OVCAR-4 ovarian
COLO 205 colon = system: COLO 205 colon
RXF 393 renal = system: RXF 393 renal
NCI-H23 lung = system: NCI-H23 lung
SN12C renal = system: SN12C renal
K-562 leukemia = system: K-562 leukemia
TK-10 renal = system: TK-10 renal
HCT-15 colon = system: HCT-15 colon
BT-549 breast = system: BT-549 breast
HOP-92 NSCLC = system: HOP-92 NSCLC
SK-MEL-2 melanoma = system: SK-MEL-2 melanoma
UACC-257 melanoma = system: UACC-257 melanoma
PC-3 prostate = system: PC-3 prostate
MCF7 breast = system: MCF7 breast
SF-295 CNS = system: SF-295 CNS
MOLT-4 leukemia = system: MOLT-4 leukemia
SK-MEL-28 melanoma = system: SK-MEL-28 melanoma
LOX IMVI melanoma = system: LOX IMVI melanoma

CO[C@@H]1CCN(c2nccc(Nc3cc4c(C(C)C)ccc(N5CC(CS(C)(=O)=O)[C@H]5C)c4cn3)n2)C[C@@H]1F (some centres not stated)
GI50 (SR leukemia): 2.87 µM | TGI (SR leukemia): 32.7 µM | GI50 (SNB-19 CNS): 5.19 µM | TGI (SNB-19 CNS): > 100 µM | GI50 (SW-620 colon): 5.13 µM | TGI (SW-620 colon): > 100 µM | GI50 (HCC-2998 colon): 4.55 µM | TGI (HCC-2998 colon): 36 µM | GI50 (UO-31 renal): 1.41 µM | TGI (UO-31 renal): 11.9 µM | GI50 (HT29 colon): 3.1 µM | TGI (HT29 colon): 12.1 µM | GI50 (EKVX NSCLC): 1.21 µM | TGI (EKVX NSCLC): > 100 µM | GI50 (OVCAR-8 ovarian): 2.83 µM | TGI (OVCAR-8 ovarian): > 100 µM | GI50 (OVCAR-3 ovarian): 3.07 µM | TGI (OVCAR-3 ovarian): > 100 µM | GI50 (U251 CNS): 4.31 µM | TGI (U251 CNS): > 100 µM | GI50 (SNB-75 CNS): 5.85 µM | TGI (SNB-75 CNS): > 100 µM | GI50 (OVCAR-4 ovarian): 2.92 µM | TGI (OVCAR-4 ovarian): 53.1 µM | GI50 (COLO 205 colon): 4.71 µM | TGI (COLO 205 colon): > 100 µM | GI50 (RXF 393 renal): 2.96 µM | TGI (RXF 393 renal): 7.65 µM | GI50 (NCI-H23 lung): 3.7 µM | TGI (NCI-H23 lung): 20.4 µM | GI50 (SN12C renal): 3.35 µM | TGI (SN12C renal): > 100 µM | GI50 (K-562 leukemia): 2.9 µM | TGI (K-562 leukemia): > 100 µM | GI50 (TK-10 renal): 0.843 µM | TGI (TK-10 renal): 19.9 µM | GI50 (HCT-15 colon): 2.84 µM | TGI (HCT-15 colon): 14.4 µM | GI50 (BT-549 breast): 4.55 µM | TGI (BT-549 breast): 35.4 µM | GI50 (HOP-92 NSCLC): 10.6 µM | TGI (HOP-92 NSCLC): > 100 µM | GI50 (SK-MEL-2 melanoma): 4.7 µM | TGI (SK-MEL-2 melanoma): 17.6 µM | GI50 (UACC-257 melanoma): 4.91 µM | TGI (UACC-257 melanoma): 41.1 µM | GI50 (PC-3 prostate): 3.52 µM | TGI (PC-3 prostate): > 100 µM | GI50 (MCF7 breast): 3.15 µM | TGI (MCF7 breast): 14.8 µM | GI50 (SF-295 CNS): 3.15 µM | TGI (SF-295 CNS): 10.1 µM | GI50 (MOLT-4 leukemia): 2.98 µM | TGI (MOLT-4 leukemia): > 100 µM | GI50 (SK-MEL-28 melanoma): 5.52 µM | TGI (SK-MEL-28 melanoma): > 100 µM | GI50 (LOX IMVI melanoma): 4.34 µM
